Laboratory results published in ChEMBL document CHEMBL5528025, “Design, synthesis and biological evaluation of carbamate derivatives incorporating multifunctional carrier scaffolds as pseudo-irreversible cholinesterase inhibitors for the treatment of Alzheimer's disease” (Eur J Med Chem, 2024).
pIC50: −log10 of the molar value. Active and inactive are the calls of the source. The rule behind the calls is not given here.

Assays:
[1] = Hepatotoxicity in IG dosed ICR mouse measured after 48 hrs; assay type: toxicity, organism-based; conditions: in vivo, po
[2] = test system: Mus musculus; experiment: Antialzheimer activity in amyloid beta (1 to 42 residues) induced ICR mouse model assessed as increase in step through latency at 5 to 20 mg/kg, ip administered daily and measured on day 18 and 19 by passive avoidance test; assay type: functional, organism-based; conditions: dose 5-20 mg/kg, time 18-19 day
[3] = test system: Mus musculus; experiment: Antialzheimer activity in amyloid beta (1 to 42 residues) induced ICR mouse model assessed as reduction in learning deficits by measuring increase in trajectory within target quadrant at 5 to 20 mg/kg, ip administered daily and measured after 13 to 17 days by morris water maze test; assay type: functional, organism-based; conditions: dose 5-20 mg/kg, time 13-17 day
[4] = Acute toxicity in ICR mouse assessed as histopathological change in brain at 100 to 500 mg/kg, ip measured after 14 days by H and E staining based analysis; assay type: organism-based; conditions: in vivo, 336 h, dose 100-500 mg/kg, time 14 day
[5] = test system: Mus musculus; experiment: Antialzheimer activity in ip dosed amyloid beta (1 to 42 residues) induced ICR mouse model assessed as reduction in learning deficits by measuring increase in alternation performance administered daily and measured on day 12 by Y-maze test; assay type: functional, organism-based; conditions: dose 5-20 mg/kg, time 12.0 day
[6] = Acute toxicity in ICR mouse assessed as histopathological change in heart at 100 to 500 mg/kg, ip measured after 14 days by H and E staining based analysis; assay type: organism-based; conditions: in vivo, 336 h, dose 100-500 mg/kg, time 14 day
[7] = test system: Mus musculus; experiment: Antialzheimer activity in amyloid beta (1 to 42 residues) induced ICR mouse model assessed as reduction in learning deficits by measuring increase in duration of time spent within target quadrant at 5 to 20 mg/kg, ip administered daily and measured after 13 to 17 days by morris water maze test; assay type: functional, organism-based; conditions: dose 5-20 mg/kg, time 13-17 day
[8] = Acute toxicity in ICR mouse assessed as aberrant behavior at 100 to 500 mg/kg, ip measured after 14 days; assay type: organism-based; conditions: in vivo, 336 h, dose 100-500 mg/kg, time 14 day
[9] = target: T1, Cholinesterase (Homo sapiens, UniProt P06276); experiment: Pseudo-irreversible inhibition of human serum BuChE using butyrylthiocholine iodide as substrate at 4 times IC50 preincubated for 20 mins followed by dialysis and measured after 12 hrs by DTNB reagent based Ellman's method
[10] = target: T2, Acetylcholinesterase (Homo sapiens, UniProt P22303)
Description: Inhibition of human erythrocyte AChE incubated for 10 mins

[11] = test system: BV-2; experiment: Antineuroinflammatory activity in LPS-induced mouse BV-2 cells assessed as increase in IL-4 level at 1.25 to 5 uM incubated for 24 hrs by ELISA; assay type: functional, cell-based; conditions: dose 1.25-5 µM
[12] = test system: Mus musculus; experiment: Antialzheimer activity in amyloid beta (1 to 42 residues) induced ICR mouse model assessed as reduction in learning deficits by measuring reduction in path search distance at 5 to 20 mg/kg, ip administered daily and measured on day 4 by morris water maze test; assay type: functional, organism-based; conditions: dose 5-20 mg/kg, time 4.0 day
[13] = target: T2, Acetylcholinesterase; experiment: Pseudo-irreversible inhibition of human erythrocyte AChE at 4 times IC50 preincubated for 20 mins followed by dialysis and measured after 12 hrs; assay type: cell-based
[14] = test system: Mus musculus; experiment: Antialzheimer activity in amyloid beta (1 to 42 residues) induced ICR mouse model assessed as reduction in nerve damage by measuring increase in live neurons in hippocampal CA3 region at 20 mg/kg, ip administered daily by nissl staining based fluorescence microscopy; assay type: functional, organism-based
[15] = test system: PC-12; experiment: Inhibition of H2O2 induced ROS production in rat PC-12 cells assessed as reduction in intracellular ROS level at 10 uM pretreated for 1 hr followed by H2O2 stimulation and measured after 24 hrs by confocal microscopic analysis; assay type: functional, cell-based; conditions: time 25.0 hrs
[16] = test system: Mus musculus; experiment: In vivo inhibition of BuChE in scopolamine treated ICR mouse assessed as reduction in BuChE level in brain at 20 mg/kg, ip preadministered with scopolamine for 7 days followed by compound administration and measured after 7 days; assay type: functional, organism-based; conditions: time 7.0 day
[17] = test system: Mus musculus; experiment: In vivo inhibition of AChE in scopolamine treated ICR mouse assessed as reduction in AChE level in brain at 5 to 20 mg/kg, ip preadministered with scopolamine for 7 days followed by compound administration and measured after 7 days; assay type: functional, organism-based; conditions: dose 5-20 mg/kg, time 7.0 day
[18] = test system: PC-12; experiment: (§1) Neuroprotective activity against H2O2-induced rat PC-12 cells assessed as protection against H2O2-induced apoptosis by measuring live cells at 10 uM pretreated for 1 hr followed by H2O2 addition and measured after 24 hrs by Annexin V-FITC/PI staining based flow cytometry analysis (reference value: 63.2%); assay type: functional; conditions: time 25 hrs
[19] = test system: Mus musculus; experiment: Antialzheimer activity in amyloid beta (1 to 42 residues) induced ICR mouse model assessed as reduction in learning deficits by measuring increase in distance traveled within target quadrant at 5 to 20 mg/kg, ip administered daily and measured after 13 to 17 days by morris water maze test; assay type: functional, organism-based; conditions: dose 5-20 mg/kg, time 13-17 day
[20] = Acute toxicity in ICR mouse assessed as abnormal dietary patterns at 100 to 500 mg/kg, ip measured after 14 days; assay type: organism-based; conditions: in vivo, 336 h, dose 100-500 mg/kg, time 14 day
[21] = test system: Mus musculus; experiment: Antialzheimer activity in amyloid beta (1 to 42 residues) induced ICR mouse model assessed as reduction in learning deficits by measuring reduction in latency at 5 to 20 mg/kg, ip administered daily and measured for 3 days by morris water maze test; assay type: functional, organism-based; conditions: dose 5-20 mg/kg, time 3.0 day
[22] = target: T1, Cholinesterase
Description: Inhibition of human serum BuChE using butyrylthiocholine iodide as substrate incubated for 10 mins followed by substrate addition and measured after 10 mins by DTNB reagent based Ellman's method

[23] = Acute toxicity in ICR mouse assessed as reduction in body weight at 100 to 500 mg/kg, ip measured after 2 days; assay type: organism-based; conditions: in vivo, 48 h, dose 100-500 mg/kg, time 2 day
[24] = Acute toxicity in ICR mouse assessed as histopathological change in spleen at 100 to 500 mg/kg, ip measured after 14 days by H and E staining based analysis; assay type: organism-based; conditions: in vivo, 336 h, dose 100-500 mg/kg, time 14 day
[25] = Acute toxicity in ICR mouse assessed as histopathological change in liver at 100 to 500 mg/kg, ip measured after 14 days by H and E staining based analysis; assay type: organism-based; conditions: in vivo, 336 h, dose 100-500 mg/kg, time 14 day
[26] = test system: BV-2; experiment: Cytotoxicity against mouse BV-2 cells assessed as reduction in cell viability at 5 uM incubated for 24 hrs by CCK-8 assay; assay type: toxicity, cell-based; conditions: bv-2, 24 h
[27] = test system: PC-12; experiment: as §1, with “late apoptotic” for “live”, “7.97%)” for “63.2%)”; assay type: functional; conditions: time 25 hrs
[28] = Cytotoxicity against rat PC-12 cells assessed as cell viability at 10 uM incubated for 24 hrs by CCK-8 assay relative to control; assay type: toxicity, cell-based; conditions: read-out: Activity
[29] = test system: Mus musculus; experiment: Antialzheimer activity in amyloid beta (1 to 42 residues) induced ICR mouse model assessed as reduction in nerve damage by measuring increase in live neurons in hippocampal CA1 region at 5 to 20 mg/kg, ip administered daily by nissl staining based fluorescence microscopy; assay type: functional, organism-based; conditions: dose 5-20 mg/kg

T2 sequence (P22303 whole entry): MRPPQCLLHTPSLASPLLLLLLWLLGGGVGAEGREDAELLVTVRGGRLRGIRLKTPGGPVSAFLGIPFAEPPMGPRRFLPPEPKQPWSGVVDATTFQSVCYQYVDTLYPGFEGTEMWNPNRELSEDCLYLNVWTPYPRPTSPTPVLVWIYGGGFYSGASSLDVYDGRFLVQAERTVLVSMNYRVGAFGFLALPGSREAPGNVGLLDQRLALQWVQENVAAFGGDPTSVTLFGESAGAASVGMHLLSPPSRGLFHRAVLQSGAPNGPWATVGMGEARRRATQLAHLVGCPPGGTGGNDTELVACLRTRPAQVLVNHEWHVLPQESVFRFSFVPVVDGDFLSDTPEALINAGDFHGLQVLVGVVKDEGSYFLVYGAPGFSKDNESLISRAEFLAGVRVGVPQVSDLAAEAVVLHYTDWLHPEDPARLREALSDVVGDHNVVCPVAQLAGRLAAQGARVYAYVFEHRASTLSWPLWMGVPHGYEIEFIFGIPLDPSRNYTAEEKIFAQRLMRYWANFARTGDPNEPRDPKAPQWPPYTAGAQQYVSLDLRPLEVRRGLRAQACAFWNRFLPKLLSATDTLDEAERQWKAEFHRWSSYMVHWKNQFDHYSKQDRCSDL
T1 sequence (P06276 whole entry): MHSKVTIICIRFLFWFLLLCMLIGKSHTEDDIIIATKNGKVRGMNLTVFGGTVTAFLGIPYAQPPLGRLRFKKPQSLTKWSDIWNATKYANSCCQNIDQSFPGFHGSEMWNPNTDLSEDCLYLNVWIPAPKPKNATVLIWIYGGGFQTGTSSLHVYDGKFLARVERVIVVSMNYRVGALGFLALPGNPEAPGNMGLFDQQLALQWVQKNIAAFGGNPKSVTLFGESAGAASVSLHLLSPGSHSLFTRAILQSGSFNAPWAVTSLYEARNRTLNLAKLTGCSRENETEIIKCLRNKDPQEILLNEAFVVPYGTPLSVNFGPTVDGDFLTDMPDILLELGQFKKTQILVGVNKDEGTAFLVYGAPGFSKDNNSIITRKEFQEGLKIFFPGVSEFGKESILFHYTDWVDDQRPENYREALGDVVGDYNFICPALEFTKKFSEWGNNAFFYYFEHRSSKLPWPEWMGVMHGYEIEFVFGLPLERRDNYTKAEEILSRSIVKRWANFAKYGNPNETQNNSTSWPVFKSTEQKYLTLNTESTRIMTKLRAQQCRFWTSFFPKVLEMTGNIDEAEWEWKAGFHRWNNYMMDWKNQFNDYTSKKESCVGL

O=C(NCCCCCCNc1c2c(nc3cc(F)ccc13)CCCC2)Oc1ccc(-c2cc3cccnc3[nH]2)cc1
LD50 at 48 h [1]: > 500 mg/kg | Activity [2]: Active | Activity [3]: Active | Activity [4]: Non-Toxic | Activity [5]: Dose-Dependent Effect | Activity [6]: Non-Toxic | Activity [7]: Active | Activity [8]: Non-Toxic | inhibition [9]: Active | pIC50 [10]: 7.52 | Activity [11]: Active | Activity [12]: Active | inhibition [13]: Active | Activity [14]: Active | inhibition [15]: Active | inhibition [16]: Active | inhibition [17]: Active | Activity [18]: 81.3% | Activity [19]: Active | Activity [20]: Non-Toxic | Activity [21]: Active | pIC50 [22]: 7.32 | Activity [23]: Toxic | Activity [24]: Non-Toxic | Activity [25]: Non-Toxic | Activity [26]: Non-Toxic | Activity [27]: 5.8% | viability at 24 h, 10 µM [28]: > 90% | Activity [29]: Active

O=C(NCCCCCCNc1c2c(nc3cc(Cl)ccc13)CCCC2)Oc1ccc(-c2cc3cccnc3[nH]2)cc1
pIC50 [10]: 7.19 | pIC50 [22]: 6.55

O=C(NCCCCCNc1c2c(nc3cc(Br)ccc13)CCCC2)Oc1ccc2cc[nH]c2c1
pIC50 [10]: 6.50 | pIC50 [22]: 7.37

O=C(NCCCCCCNc1c2c(nc3cc(F)ccc13)CCCC2)Oc1ccc2cc[nH]c2c1
pIC50 [10]: 6.53 | pIC50 [22]: 7.37

C[C@@H](c1cccc(OC(=O)NCCCCCNc2c3c(nc4ccccc24)CCCC3)c1)N(C)C
pIC50 [10]: 6.93 | pIC50 [22]: 7.92

O=C(NCCCCCCNc1c2c(nc3cc(Cl)ccc13)CCCC2)Oc1ccc2cc[nH]c2c1
pIC50 [10]: 6.82 | pIC50 [22]: 7.19

C[C@@H](c1cccc(OC(=O)NCCCCCNc2c3c(nc4cc(Br)ccc24)CCCC3)c1)N(C)C
pIC50 [10]: 7.32 | pIC50 [22]: 7.66

C[C@@H](c1cccc(OC(=O)NCCCCNc2c3c(nc4ccccc24)CCCC3)c1)N(C)C
pIC50 [10]: 6.53 | pIC50 [22]: 7.36

O=C(NCCCCCNc1c2c(nc3cc(Cl)ccc13)CCCC2)Oc1ccc2cc[nH]c2c1
pIC50 [10]: 6.61 | pIC50 [22]: 7.31 | Activity [26]: Toxic | viability at 24 h, 10 µM [28]: > 90%
